Where two headings read alike, the source gives them in different places.
Key:
Type in all cases: cell-based, human
[1] = test system: CFPAC-1; test: MTT cytotoxicity assay, 72 h
Experimental: (§1) In our study, the human cancer cell lines used were CFAPC- 1 (pancreatic adenocarcinoma); NCI-H460 (large cell lung); HL-60 (acute promyelocytic leukaemia); CACO2 (colorectal adenocarcinoma); HCT-116 (colorectal carcinoma); K562 (chronic myeloid leukaemia); MCF-7 (breast adenocarcinoma); and MRC-5 control cells (normal fibroblasts).
(§2) CFAPC-1, NCI-H460 H1975, HL-60, HCT-116, CACO2, K562, MCF-7, and MCR-5 were grown and maintained in RPMI 1640 and DMEM F12 as appropriate with 10% fetal bovine serum, 100 UI/mL penicillin–streptomycin, and cultured al 37 °C in 5% CO2 humidified atmosphere. Control cultures were treated with dimethyl sulfoxide (1%) alone at the same concentration as in the purine derivatives treatment. Cell viability was determined by trypan blue dye exclusion. Cell numbers were counted in hemocytometer by light microscopy.
(§3) Cytotoxicity assays were performed by using the MTT reduction method as described in the literature. Briefly, cancer cell lines were plated in a flat-bottom 96-wells plate at 1 × 10^4 cells per well density. Then, the cells were incubated with synthetized compounds at different concentrations (from 0.1 to 100 µM) in 200 µL of 10% fetal bovine serum-RPMI or EMEM culture medium at 37 °C for 72 h. Then, 10 µL of MTT was added at a final concentration of 0.5 mg/mL, incubated at 37 °C for 4 h, and then solubilized with 10% sodium dodecyl sulphate (SDS) in 0.1 mM HCl and incubated overnight at 37 °C. Formazan formation was measured at 570 nm in a multi-well reader (StatFax 4200).

[2] = test system: HCT-116; test: MTT cytotoxicity assay, 72 h
Experimental: as §1, §2, §3

[3] = test system: HL-60; test: MTT cytotoxicity assay, 72 h; settings: for Experimental pIC50 (HL-60): -logIC50 in molar concentration
Experimental: as §1, §2, §3

[4] = test system: K562; test: MTT cytotoxicity assay, 72 h; settings: MTT, 72 h, IC50 ± SD
Experimental: as §1, §2, §3

[5] = test system: MCF-7; test: MTT cytotoxicity assay, 72 h; settings: MTT, 72 h, IC50 ± SD
Experimental: as §1, §2, §3

[6] = test system: NCI-H460; test: MTT cytotoxicity assay, 72 h; settings: for Experimental pIC50 (NCI-H460): -logIC50 in molar concentration
Experimental: as §1, §2, §3

[7] = test system: CACO2; test: MTT cytotoxicity assay, 72 h
Experimental: Cytotoxicity assays were performed by using the MTT reduction method as described in the literature [23, 37]. Briefly, cancer cell lines were plated in a flat-bottom 96-wells plate at 1 × 10^4 cells per well density. Then, the cells were incubated with synthetized compounds at different concentrations (from 0.1 to 100 µM) in 200 µL of 10% fetal bovine serum-RPMI or EMEM culture medium at 37 °C for 72 h. Then, 10 µL of MTT was added at a final concentration of 0.5 mg/mL, incubated at 37 °C for 4 h, and then solubilized with 10% sodium dodecyl sulphate (SDS) in 0.1 mM HCl and incubated overnight at 37 °C. Formazan formation was measured at 570 nm in a multi-well reader (StatFax 4200).

[8] = test system: MRC-5; test: MTT cytotoxicity assay, 72 h, normal control cells; settings: normal fibroblasts
Experimental: as §1, §2, §3

[9] = test system: HL-60 cells; test: Cell viability by propidium iodide flow cytometry; settings: HL-60, 50 μM, 24 h, PI staining
Source text: Next, in order to determinate the cell death type induced by the most promising compounds, we performed a flow cytometry analysis of cell viability in cell line HL-60 treated with the most promising compounds (selected according to their IC50 values and SI). The HL-60 cancer cells were chosen due to their sensitivity to prepared compounds. […] As a preliminary apoptosis filter, propidium iodide (PI) staining was used through flow cytometry analysis which discriminated a population of viable cells impermeable to PI (PI negative) from necrotic cells PI-permeable (PI positive) and apoptotic cells (the difference of the previous two). The results are shown in Figure 7, illustrating that all purine derivatives tested induced apoptosis on HL-60 cells. Around 40% of apoptotic cells were detected in a culture treated with compounds 7a and 7i, 30% by 7e, 7g, and 7h and 70% by 7d and 7j. […] (For dot plots, see Supplementary Information Figures S1–S3.)
Cell viability was analyzed by flow cytometry as previously described. In this assay, after setting the baseline to exclude cell debris, cells impermeable to propidium iodide (PI negative) are considered as viable. Two populations of PI-permeable dead cells are distinguished based on fluorescence intensity, corresponding to either hypodiploid apoptotic cells or necrotic cells with intact DNA. Here, HL60 cells were incubated with concentrations of 50 µM of each compound for 24 h at 37 °C. Cells were harvested and stained with 10 µg/mL of propidium iodide to determine cell viability. Samples containing roughly 1 × 10^4 cells were evaluated by flow cytometry (FACScanto II; Becton Dickinson, Mountain View, CA) and analyzed using FCS Express v6 software. Three independent biological replicates were performed.

[10] = MTT, 72 h, IC50 ± SD, read-out: IC50 HL-60
[11] = MTT, 72 h, IC50 ± SD, read-out: IC50 NCI-H460
[12] = Homo sapiens, CFPAC-1, IC50 ± SD
[13] = Homo sapiens, HCT-116, IC50 ± SD
[14] = Homo sapiens, HL-60, 72 h, MTT, 72 h, IC50 ± SD, read-out: IC50 HL-60
[15] = Homo sapiens, HL-60, -logIC50 in molar concentration, Table S1, read-out: Experimental pIC50 (HL-60) (converted)
[16] = Homo sapiens, NCI-H460, 72 h, MTT, 72 h, IC50 ± SD, read-out: IC50 NCI-H460
[17] = Homo sapiens, Caco-2, IC50 ± SD
[18] = Homo sapiens, NCI-H460, -logIC50 in molar concentration, Table S2, read-out: Experimental pIC50 (NCI-H460) (converted)

| Compound | IC50 ([1]; IC50 ± SD) [µM] | IC50 ([2]; IC50 ± SD) [µM] | Experimental pIC50 (HL-60) ([3]; Table S1) [M] | IC50 [3, 10] [µM] | IC50 [4] [µM] | IC50 [5] [µM] | IC50 [6, 11] [µM] | IC50 ([7]; IC50 ± SD) [µM] | IC50 ([8]; IC50 ± SD) [µM] | IC50 [1, 12] [µM] | IC50 [2, 13] [µM] | IC50 [3, 14] [µM] | IC50 [6, 16] [µM] | IC50 [7, 17] [µM] | IC50 ([8]; Homo sapiens, MRC5, IC50 ± SD) [µM] | further results |
| --- | --- | --- | --- | --- | --- | --- | --- | --- | --- | --- | --- | --- | --- | --- | --- | --- |
| CCn1cnc2c(-c3ccc(OC(F)(F)F)cc3)nc(NCC3CCCCC3)nc21 [4c, N-(cyclohexylmethyl)-9-ethyl-6-(4-(trifluoromethoxy)phenyl)-9H-purin-2-amine] | 67 ± 1 | > 50 | 4.6021 | 25 ± 5.4 | > 25 | > 25 | 64 ± 2 | > 100 | 60 ± 1 | – | – | – | – | – | – | Experimental pIC50 (NCI-H460) ([6]; Table S2): 4.1938 M |
| CCCn1cnc2c(-c3ccc(OC(F)(F)F)cc3)nc(NC3CCCC3)nc21 [4e, N-cyclopentyl-9-propyl-6-(4-(trifluoromethoxy)phenyl)-9H-purin-2-amine] | > 100 | > 50 | 4.7447 | 18 ± 4 | > 25 | > 25 | > 100 | > 100 | > 100 | – | – | – | – | – | – | – |
| CCCn1cnc2c(-c3ccc(OC(F)(F)F)cc3)nc(NC3CCCCC3)nc21 [4f, N-cyclohexyl-9-propyl-6-(4-(trifluoromethoxy)phenyl)-9H-purin-2-amine] | 69 ± 1 | > 50 | 5.0088 | 9.8 ± 1.5 | > 25 | > 25 | > 100 | > 100 | 68 ± 1 | – | – | – | – | – | – | – |
| CCCn1cnc2c(-c3ccc(OC(F)(F)F)cc3)nc(NCC3CCCCC3)nc21 [4g, N-(cyclohexylmethyl)-9-propyl-6-(4-(trifluoromethoxy)phenyl)-9H-purin-2-amine] | 98 ± 5 | > 50 | 4.6778 | 21 ± 5 | > 25 | > 25 | 72 ± 2 | > 100 | > 100 | – | – | – | – | – | – | Experimental pIC50 (NCI-H460) ([6]; Table S2): 4.1427 M |
| CCCn1cnc2c(-c3ccc(OC(F)(F)F)cc3)nc(NC3CCCCCC3)nc21 [4h, N-cycloheptyl-9-propyl-6-(4-(trifluoromethoxy)phenyl)-9H-purin-2-amine] | – | – | – | – | – | – | – | – | – | > 100 | > 50 | 14 ± 1 | > 100 | > 100 | > 100 | IC50 [3, 15]: 14 µM; IC50 ([4]; Homo sapiens, K562, 72 h): > 25 µM; IC50 ([5]; Homo sapiens, MCF7, 72 h): > 25 µM |
| Clc1nc(N2CCN(c3ccccn3)CC2)c2ncn(C3CCCC3)c2n1 [7b, 2-Chloro-9-cyclopentyl-6-(4-(pyridin-2-yl)piperazin-1-yl)-9H-purine] | – | – | – | – | – | – | – | – | – | > 100 | > 50 | > 50 | > 100 | > 100 | > 100 | IC50 ([4]; Homo sapiens, K562, 72 h): 3.06 ± 0.54 µM; IC50 ([5]; Homo sapiens, MCF7, 72 h): 5.07 ± 0.9 µM |
| Clc1nc(N2CCC(c3ccccc3)CC2)c2ncn(C3CCCC3)c2n1 [7e, 2-Chloro-9-cyclopentyl-6-(4-phenylpiperidin-1-yl)-9H-purine] | – | – | – | – | – | – | – | – | – | > 100 | > 50 | 3 ± 0.6 | 11 ± 1 | > 100 | > 100 | IC50 [3, 15]: 3 µM; Selectivity Index (SI) MRC-5/HL-60 ([3]; IC50 in MRC-5 / IC50 in HL-60): > 33.3; IC50 [6, 18]: 11 µM; Selectivity Index (SI) MRC-5/NCI-H460 ([6]; IC50 in MRC-5 / IC50 in NCI-H460): > 9.1; apoptotic cells [9]: ~30% |
| Clc1nc(N2CCN(c3ccccc3)CC2)c2ncn(C3CCCC3)c2n1 [7f, 2-Chloro-9-cyclopentyl-6-(4-phenylpiperazin-1-yl)-9H-purine] | – | – | – | – | – | – | – | – | – | > 100 | > 50 | 1.3 ± 0.5 | 6.71 ± 0.23 | > 100 | > 100 | IC50 [3, 15]: 1.3 µM; IC50 ([4]; Homo sapiens, K562, 72 h): 4.22 ± 0.27 µM; IC50 ([5]; Homo sapiens, MCF7, 72 h): 6.13 ± 0.25 µM; IC50 [6, 18]: 6.71 µM |
| N.N.[Cl][Pt][Cl] [Cisplatin, reference compound] | 3.16 ± 0.1 | 3.89 ± 1.3 | – | 6.2 ± 0.2 | 4.67 ± 0.38 | 10.9 ± 0.8 | 4.77 ± 0.13 | – | 6.78 ± 0.18 | – | – | – | – | – | – | IC50 ([6]; MTT, 72 h, IC50 ± SD, listed as cisplatin, read-out: IC50 NCI-H460): 4.8 µM; apoptotic cells [9]: 66% |
| N-cycloheptyl-9-ethyl-6-(4-(trifluoromethoxy)phenyl)-9H-purin-2-amine [4d] | > 100 | > 50 | 4.6778 | 21 ± 1 | > 25 | > 25 | > 100 | > 100 | > 100 | – | – | – | – | – | – | – |
| N-cyclohexyl-9-ethyl-6-(4-(trifluoromethoxy)phenyl)-9H-purin-2-amine [4b] | > 100 | > 50 | – | > 50 | > 25 | > 25 | > 100 | > 100 | > 100 | – | – | – | – | – | – | – |

Source: PMC6981454, “Promising 2,6,9-Trisubstituted Purine Derivatives for Anticancer Compounds: Synthesis, 3D-QSAR, and Preliminary Biological Assays” (International Journal of Molecular Sciences, 2019)
